Laboratory results reported in ChEMBL document CHEMBL3526078, “Pharmacokinetics and hepatic uptake of eltrombopag, a novel platelet-increasing agent” (Drug Metab Dispos, 2011).

What was measured:
[1] = molecular target: T1, Solute carrier family 22 member 1 (Homo sapiens, UniProt O15245); experiment: Inhibition of OCT1-mediated [14C]tetraethylammonium uptake in human OCT1 expressing HEK293/PDZK1 cells by scintillation counting; format: ADME, cell-based; conditions: human, hek293/pdzk1
T1 sequence (O15245 whole entry): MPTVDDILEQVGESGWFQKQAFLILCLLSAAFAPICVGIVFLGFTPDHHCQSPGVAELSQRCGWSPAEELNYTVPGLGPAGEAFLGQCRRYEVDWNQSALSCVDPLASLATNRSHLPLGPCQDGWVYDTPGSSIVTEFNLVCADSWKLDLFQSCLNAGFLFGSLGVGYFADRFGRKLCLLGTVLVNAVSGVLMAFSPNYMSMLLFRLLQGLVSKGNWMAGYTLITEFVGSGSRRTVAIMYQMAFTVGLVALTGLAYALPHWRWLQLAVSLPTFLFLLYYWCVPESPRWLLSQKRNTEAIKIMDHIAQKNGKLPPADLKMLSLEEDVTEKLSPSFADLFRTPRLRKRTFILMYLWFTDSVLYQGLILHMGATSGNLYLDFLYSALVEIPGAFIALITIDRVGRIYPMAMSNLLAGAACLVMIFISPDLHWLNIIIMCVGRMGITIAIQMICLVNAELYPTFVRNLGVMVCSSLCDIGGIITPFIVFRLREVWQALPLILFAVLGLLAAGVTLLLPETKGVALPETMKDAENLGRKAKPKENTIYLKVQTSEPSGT

[2] = molecular target: T2, Organic cation/carnitine transporter 2 (Homo sapiens, UniProt O76082); experiment: Inhibition of OCTN2-mediated [14C]carnitine uptake in human OCTN2 expressing HEK293/PDZK1 cells by scintillation counting; format: cell-based
T2 sequence (O76082 whole entry): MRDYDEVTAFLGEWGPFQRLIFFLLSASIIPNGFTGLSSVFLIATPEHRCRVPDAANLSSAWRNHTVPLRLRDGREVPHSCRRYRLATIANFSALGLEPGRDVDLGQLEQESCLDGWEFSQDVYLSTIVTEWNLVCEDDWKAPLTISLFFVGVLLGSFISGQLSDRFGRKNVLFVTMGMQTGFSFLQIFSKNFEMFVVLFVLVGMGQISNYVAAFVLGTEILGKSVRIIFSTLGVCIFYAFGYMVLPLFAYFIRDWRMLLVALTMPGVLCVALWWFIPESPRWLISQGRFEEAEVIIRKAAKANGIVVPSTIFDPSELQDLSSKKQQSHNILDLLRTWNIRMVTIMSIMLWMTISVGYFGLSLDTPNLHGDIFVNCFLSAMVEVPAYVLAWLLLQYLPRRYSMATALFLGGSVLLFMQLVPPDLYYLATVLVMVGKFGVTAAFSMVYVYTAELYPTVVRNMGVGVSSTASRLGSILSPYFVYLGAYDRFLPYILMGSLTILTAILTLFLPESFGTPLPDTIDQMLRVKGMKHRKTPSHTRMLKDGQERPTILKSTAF

Liver = experiment: Tissue uptake clearance in mouse liver at […] mg/kg, iv in presence of 30 umol/kg TPeA; format: ADME, organism-based; conditions: in vivo
Kidney = experiment: Tissue uptake clearance in mouse kidney at […] mg/kg, iv in presence of 30 umol/kg TPeA; format: ADME, organism-based; conditions: in vivo
[3] = molecular target: T3, Solute carrier organic anion transporter family member 1B1 (Homo sapiens, UniProt Q9Y6L6); experiment: Inhibition of OATP1B1-mediated [3H]estrone-3-sulfate uptake in human OATP1B1 expressing HEK293/PDZK1 cells by scintillation counting; format: ADME, cell-based; conditions: human, hek293/pdzk1
T3 sequence (Q9Y6L6 whole entry): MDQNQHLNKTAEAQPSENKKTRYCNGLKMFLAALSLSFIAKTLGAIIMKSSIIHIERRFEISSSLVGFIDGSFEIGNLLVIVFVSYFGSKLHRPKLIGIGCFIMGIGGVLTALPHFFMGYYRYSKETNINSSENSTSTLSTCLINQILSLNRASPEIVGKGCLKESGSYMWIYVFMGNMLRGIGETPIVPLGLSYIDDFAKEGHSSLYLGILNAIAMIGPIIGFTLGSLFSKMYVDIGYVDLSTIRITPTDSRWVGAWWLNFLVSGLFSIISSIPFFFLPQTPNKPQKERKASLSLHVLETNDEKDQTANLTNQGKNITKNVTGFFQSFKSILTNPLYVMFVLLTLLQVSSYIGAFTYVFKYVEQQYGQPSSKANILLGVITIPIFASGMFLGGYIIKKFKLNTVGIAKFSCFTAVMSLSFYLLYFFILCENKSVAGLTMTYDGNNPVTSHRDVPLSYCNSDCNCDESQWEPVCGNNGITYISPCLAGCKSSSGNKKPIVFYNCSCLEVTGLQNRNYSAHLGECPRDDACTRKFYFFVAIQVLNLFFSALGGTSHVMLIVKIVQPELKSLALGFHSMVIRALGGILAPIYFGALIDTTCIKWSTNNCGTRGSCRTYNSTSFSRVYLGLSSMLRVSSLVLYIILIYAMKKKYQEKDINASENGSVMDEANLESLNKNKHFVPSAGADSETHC

[4] = molecular target: T4, Solute carrier organic anion transporter family member 2B1 (Homo sapiens, UniProt O94956); experiment: Inhibition of OATP2B1-mediated [3H]estrone-3-sulfate uptake in human OATP2B1 expressing HEK293/PDZK1 cells by scintillation counting; format: ADME, cell-based; conditions: human, hek293/pdzk1
T4 sequence (O94956 whole entry): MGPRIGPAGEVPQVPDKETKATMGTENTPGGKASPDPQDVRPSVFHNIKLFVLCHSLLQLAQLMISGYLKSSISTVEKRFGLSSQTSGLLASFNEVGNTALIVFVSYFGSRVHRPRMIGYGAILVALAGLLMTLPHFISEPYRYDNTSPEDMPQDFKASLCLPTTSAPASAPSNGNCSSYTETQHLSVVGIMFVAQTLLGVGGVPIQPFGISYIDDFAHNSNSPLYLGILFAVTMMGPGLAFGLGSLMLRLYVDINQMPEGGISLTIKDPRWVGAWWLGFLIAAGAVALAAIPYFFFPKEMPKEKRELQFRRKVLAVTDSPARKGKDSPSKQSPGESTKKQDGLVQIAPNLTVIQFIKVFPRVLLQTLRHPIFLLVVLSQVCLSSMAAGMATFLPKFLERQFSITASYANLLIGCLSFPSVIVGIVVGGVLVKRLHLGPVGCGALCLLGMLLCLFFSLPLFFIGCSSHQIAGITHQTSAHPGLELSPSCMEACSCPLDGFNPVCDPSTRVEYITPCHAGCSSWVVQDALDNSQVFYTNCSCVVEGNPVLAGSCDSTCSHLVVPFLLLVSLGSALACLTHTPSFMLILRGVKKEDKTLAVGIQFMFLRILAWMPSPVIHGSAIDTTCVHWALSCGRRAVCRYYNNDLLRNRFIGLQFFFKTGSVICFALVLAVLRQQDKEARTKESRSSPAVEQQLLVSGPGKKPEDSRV

[5] = molecular target: T5, Solute carrier organic anion transporter family member 1B3 (Homo sapiens, UniProt Q9NPD5); experiment: Inhibition of OATP1B3-mediated [3H]estradiol 17beta-glucuronide uptake in human OATP1B3 expressing HEK293/PDZK1 cells by scintillation counting; format: ADME, cell-based; conditions: human, hek293/pdzk1
T5 sequence (Q9NPD5 whole entry): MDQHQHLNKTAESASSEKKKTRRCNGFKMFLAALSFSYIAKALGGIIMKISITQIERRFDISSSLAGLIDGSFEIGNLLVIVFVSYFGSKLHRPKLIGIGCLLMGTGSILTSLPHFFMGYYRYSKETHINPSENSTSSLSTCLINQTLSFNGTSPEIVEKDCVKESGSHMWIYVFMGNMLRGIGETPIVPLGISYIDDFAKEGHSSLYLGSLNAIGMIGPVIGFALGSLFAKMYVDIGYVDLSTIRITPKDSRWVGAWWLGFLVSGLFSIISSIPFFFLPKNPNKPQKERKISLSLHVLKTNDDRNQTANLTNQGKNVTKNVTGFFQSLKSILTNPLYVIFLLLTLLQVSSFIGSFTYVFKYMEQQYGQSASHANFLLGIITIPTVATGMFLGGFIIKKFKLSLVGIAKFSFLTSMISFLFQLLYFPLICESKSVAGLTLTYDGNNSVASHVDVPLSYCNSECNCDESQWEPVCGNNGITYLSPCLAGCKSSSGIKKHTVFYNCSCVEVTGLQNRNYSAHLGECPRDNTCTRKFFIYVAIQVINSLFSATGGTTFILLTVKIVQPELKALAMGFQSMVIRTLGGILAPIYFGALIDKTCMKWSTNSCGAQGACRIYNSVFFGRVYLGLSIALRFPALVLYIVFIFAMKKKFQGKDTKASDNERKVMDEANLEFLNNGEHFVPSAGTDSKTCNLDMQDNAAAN

CC[N+](CC)(CC)CC [TETRYLAMMONIUM]
inhibition (INH) [1]: Active

C[N+](C)(C)CC(O)CC(=O)[O-] (configuration not stated) [CARNITINE]
inhibition (INH) [2]: Active

CN(C)C(=N)N=C(N)N [METFORMIN]
Drug uptake (Liver): Not Active | Drug uptake (Kidney): Not Active

O=C1OC(c2ccc(O)c(S(=O)(=O)O)c2)(c2ccc(O)c(S(=O)(=O)O)c2)c2c(Br)c(Br)c(Br)c(Br)c21 [SULFOBROMOPHTHALEIN]
inhibition (INH) [3]: Active | inhibition (INH) [4]: Active | inhibition (INH) [5]: Active
